Like-named read-outs stand apart in the source and are kept apart here. Positions of bridges follow the written chain, without caps; N, C: chain ends. Non-standard residues stand in square brackets, D forms with d. Residues, ends and D or L forms follow the SMILES beside them.
Legend:
human SSTR-1 = human SSTR-1 (Homo sapiens, UniProt P30872); assay: Somatostatin receptor binding assay, hSSTR-1
human SSTR-2 = human SSTR-2 (Homo sapiens, UniProt P30874); assay: Somatostatin receptor binding assay, hSSTR-2
human SSTR-5 = human SSTR-5 (Homo sapiens, UniProt P35346); assay: Somatostatin receptor binding assay, hSSTR-5
[1] = system: fatty (fa/fa) Zucker rats; assay: Insulin sensitivity study, oral glucose challenge after one week treatment; assay type: in vivo, rat; conditions: 3 mg/kg s.c. twice daily, 7 days
Method: Male fatty Zucker rats (Harlan-Olac, Bicester, Oxon, U.K.), which were 15-17 weeks old, were randomly divided into two groups. The animals were house in pairs in a normal 12 hour light:12 hour darkness cycle at 20±2° C. and fed a standard laboratory rat diet (Beekay rat and mouse diet, Bantin & Kingman, Hull, Humberside, U.K.) ad libitum. For the group assigned to receive drug treatment, the rats received BIM-23268C at 3 mg/kg, by subcutaneous injection, twice a day at 10:00 AM and 5:00 PM. The other group, the control group, was treated with a subcutaneous injection of 0.lml/100 g of saline twice a day at 10:00 AM and 5:00 PM. […] On the last day of treatment, at 5:00 PM food was removed, and the rats were fasted overnight.
A method for assessing insulin sensitivity is to administer an oral glucose challenge and monitoring the secretion of insulin and disposal of glucose from the blood stream over a 240 min period (Bergman, R. N., et al., Endocrine Review 6:45-86 (1985)). […] 20 μl blood samples were taken from tail vein (Abdel-Halim, S. M., et al., Diabetes 43:281-288 (1994)) at −60 min, −30 min, 0 min, 30 min, 60 min, 90 min, 120 min, and 240 min.
The 20 μl samples were taken into 380 μl of hemolysis reagents (Sigma, Poole, Dorset, UK) containing 50 mg/liter of digitonin (Cat# D-1407) and 100 mg/liter of Maleimide (M-3766). From this, 100 μl of the hemolysed blood sample was added to 0.9 ml of Tinder reagent (Sigma Enzymatic calorimetric assay for blood glucose, Cat# 315-100, Sigma Chemical Co. Ltd, Poole, Dorset, UK). Blood glucose was determined according to vendor's recommendation at 505 nm.
Insulin was measured by the conventional radioimmunoassay method as described (Dunmore, S., & Beloff-Chain, A., J Endocrinol. 92:15-21 (1982)). Samples were assayed in triplicates with a 1:30000 dilution of an insulin antiserum (from guinea pig)raised in the laboratory (Dunmore, S. J., et al., J. Endocrinol. 137:375-381 (1993), and using ^125I-labelled bovine insulin, iodinated by the chloramine T method (Sambrook, et al., Molecular Cloning- A Laboratory Manual, Ed. 2., Cold Spring Harbor Laboratory Press, 1989). Rat insulin (2000U/0.1 ml, Novo Nordisk Laboratories, Basingstoke, Hants, U.K.) was used as a standard in the assay. The standards and samples were diluted in assay buffer containing NaH2PO4 5.7 g/L, bovine serum albumin (Sigma A4378, Sigma Chemical Co. Ltd., Poole, Dorset, UK) 5.0 g/L, NaN3 1.0 g/L buffered to pH 7.4). Antibody-bound insulin was separated on from free insulin by the addition of a second antibody (donkey anti-guinea pig Ig) coated on cellulose, Sac-Cel (IDS, Boldon, Tyne & Wear, UK). The antibody-bound insulin precipitate was separated by centrifugation. Counts bound were measured on an LKB Rackgamma solid scintillation counter.

[2] = system: Obese (fa/fa) Zucker rats; assay: Lipidemia study, plasma glycerol and triglycerides; assay type: in vivo, rat
Method: Obese (fa/fa) Zucker rats were treated as in example 1 above. On the last day of treatment (day 6), food was removed at 5:00 p.m., and the rats were fasted overnight. At 9:00 a.m. the next day, the animals were subjected to a glucose challenge, given as 0.8 gram/kg of glucose orally. Periodic 400 μl of blood samples were taken from the tail vein (Peterson, R. G., ILAR News, 32:16-19 (1990)) 60 min. and 30 min. before and at 30, 60, 90, and 120 min. after the administration of the glucose challenge (0.8 gram/kg orally). Aprotinin (Traysylol, Bayer UK, Hayward's Health, W. Sussex, U.K.) and heparin (Sigma Chemical Co., Poole, Dorset, U.K.) were added to the blood samples to a final concentration of 400 KIU/ml and 100 units/ml, respectively. Plasma fractions were prepared from these samples by centrifugation at 4000×G in a microfuge, for the estimation of triglycerides and glycerol. Samples were then stored at −80° C. until assayed.
Plasma glycerol and triglycerides were determined using the Sigma Enzymatic (Tinder) calorimetric assay kit (Cat #337-B, Sigma Chemical Co., Poole, Dorset, U.K.) and measuring absorbance at 540 nm in a spectrophotometer.

[3] = system: fatty (fa/fa) Zucker rats; conditions: 3 mg/kg s.c. twice daily, 6 days
human SSTR-3 = human SSTR-3 (Homo sapiens, UniProt P32745); assay: Somatostatin receptor binding assay, hSSTR-3
human SSTR-4 = human SSTR-4 (Homo sapiens, UniProt P31391); assay: Somatostatin receptor binding assay, hSSTR-4
[4] = 3 mg/kg s.c. twice daily, 6 days, samples 30 and 60 minutes before oral glucose challenge, FIG. 1/2
[5] = throughout the 2-hour test period after oral glucose challenge

Chain of human SSTR-2 (P30874 whole entry): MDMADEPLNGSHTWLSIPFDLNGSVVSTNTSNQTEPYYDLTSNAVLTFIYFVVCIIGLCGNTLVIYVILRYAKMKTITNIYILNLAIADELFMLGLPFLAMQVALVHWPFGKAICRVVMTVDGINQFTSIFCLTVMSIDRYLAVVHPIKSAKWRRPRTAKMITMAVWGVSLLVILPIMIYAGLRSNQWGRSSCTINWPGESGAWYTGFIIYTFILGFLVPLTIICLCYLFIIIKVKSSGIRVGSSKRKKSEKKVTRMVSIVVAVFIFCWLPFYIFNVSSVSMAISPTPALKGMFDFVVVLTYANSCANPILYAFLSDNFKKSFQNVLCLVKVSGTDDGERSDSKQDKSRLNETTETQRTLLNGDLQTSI
Chain of human SSTR-5 (P35346 whole entry): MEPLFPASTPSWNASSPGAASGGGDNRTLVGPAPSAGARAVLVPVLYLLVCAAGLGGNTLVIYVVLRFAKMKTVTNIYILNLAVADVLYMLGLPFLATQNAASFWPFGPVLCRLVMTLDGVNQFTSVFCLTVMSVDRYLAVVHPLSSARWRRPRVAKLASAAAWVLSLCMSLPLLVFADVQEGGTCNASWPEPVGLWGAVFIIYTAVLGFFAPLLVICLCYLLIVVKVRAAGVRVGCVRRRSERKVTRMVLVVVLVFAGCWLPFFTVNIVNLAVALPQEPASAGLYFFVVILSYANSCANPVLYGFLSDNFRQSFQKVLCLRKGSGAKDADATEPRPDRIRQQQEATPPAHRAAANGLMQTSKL
Chain of human SSTR-1 (P30872 whole entry): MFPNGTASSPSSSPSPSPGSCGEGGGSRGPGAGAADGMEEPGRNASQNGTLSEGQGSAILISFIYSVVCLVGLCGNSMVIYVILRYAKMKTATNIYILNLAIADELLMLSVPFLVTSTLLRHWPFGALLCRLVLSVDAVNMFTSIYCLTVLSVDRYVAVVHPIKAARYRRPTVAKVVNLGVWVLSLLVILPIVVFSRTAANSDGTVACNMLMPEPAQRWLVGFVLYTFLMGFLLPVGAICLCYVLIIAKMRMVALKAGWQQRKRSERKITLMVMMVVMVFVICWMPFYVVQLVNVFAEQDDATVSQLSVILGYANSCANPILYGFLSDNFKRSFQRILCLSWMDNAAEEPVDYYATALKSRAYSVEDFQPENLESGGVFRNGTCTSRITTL
Chain of human SSTR-4 (P31391 whole entry): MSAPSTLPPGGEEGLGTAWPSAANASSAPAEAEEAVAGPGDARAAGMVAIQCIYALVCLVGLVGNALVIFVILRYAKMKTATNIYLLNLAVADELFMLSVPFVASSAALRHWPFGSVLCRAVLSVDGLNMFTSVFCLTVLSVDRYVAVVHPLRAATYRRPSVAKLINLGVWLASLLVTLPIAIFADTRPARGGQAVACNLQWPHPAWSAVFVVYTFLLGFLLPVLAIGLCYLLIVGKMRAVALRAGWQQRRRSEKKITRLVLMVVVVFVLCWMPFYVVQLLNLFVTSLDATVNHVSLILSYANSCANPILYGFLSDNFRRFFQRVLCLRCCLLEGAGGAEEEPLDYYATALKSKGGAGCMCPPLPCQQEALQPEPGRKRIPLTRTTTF
Chain of human SSTR-3 (P32745 whole entry): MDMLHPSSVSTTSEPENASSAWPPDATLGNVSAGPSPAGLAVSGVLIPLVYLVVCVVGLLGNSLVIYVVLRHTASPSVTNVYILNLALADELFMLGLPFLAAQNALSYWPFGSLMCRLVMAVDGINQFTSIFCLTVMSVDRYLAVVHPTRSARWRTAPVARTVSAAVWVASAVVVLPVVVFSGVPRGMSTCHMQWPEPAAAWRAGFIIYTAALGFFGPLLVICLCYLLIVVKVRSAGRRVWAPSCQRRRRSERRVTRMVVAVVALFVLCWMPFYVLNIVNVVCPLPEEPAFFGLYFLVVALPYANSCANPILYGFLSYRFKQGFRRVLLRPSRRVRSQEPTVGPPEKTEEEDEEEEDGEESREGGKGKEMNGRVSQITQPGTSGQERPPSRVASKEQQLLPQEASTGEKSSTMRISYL

How did the Ki (human SSTR-1; read-out: Ki hSSTR-1) turn out when `C[C@@H](O)[C@@H]1NC(=O)[C@H](CCCCN)NC(=O)[C@@H](Cc2c[nH]c3ccccc23)NC(=O)[C@H](Cc2ccccc2)NC(=O)[C@H](Cc2ccccc2)NC(=O)[C@@H](N)CSSC[C@@H](C(N)=O)NC(=O)[C@H](Cc2ccccc2)NC1=O` [BIM-23268, H-Cys-Phe-Phe-D-Trp-Lys-Thr-Phe-Cys-NH2] (H-CFF[dW]KTFC-NH2; disulfide 1-8) was run?
Its Ki is 1230 nM.

What about the Ki (human SSTR-2; read-out: Ki hSSTR-2) of the same molecule?
The Ki was 15.1 nM.

And the Ki (human SSTR-5; read-out: Ki hSSTR-5)?
The Ki was 0.42 nM.

What about the insulin-sensitivity [1] of the same molecule?
Its insulin-sensitivity is “produced an improvement in insulin-sensitivity”.

And the glucose tolerance ([1]; oral glucose 0.8 g/kg after overnight fast)?
The glucose tolerance was “did not show an impairment in glucose tolerance”.

What about the “glucose stimulated insulin secretion to the glucose challenge” value ([1]; oral glucose 0.8 g/kg after overnight fast, vs saline group) of the same molecule?
The value was “significant suppression”.

What about the “plasma glucose profile versus untreated group” value ([1]; oral glucose 0.8 g/kg, up to 240 min) of the same molecule?
The value was “not significantly different”.

And the plasma glycerol [2, 4]?
Its plasma glycerol is “significantly lowered”.

And the plasma triglycerides [2, 4]?
The plasma triglycerides was “significantly lowered”.

What about the hypertriglyceridemia ([2]; 6-day treatment, 3 mg/kg s.c. twice daily) of the same molecule?
Its hypertriglyceridemia is “effective in reducing hypertriglyceridemia”.

And the plasma glycerol [2, 5]?
Its plasma glycerol is “significantly lower”.

And the plasma triglycerides [2, 5]?
The plasma triglycerides was “significantly lower”.

What about the “amount of food consumed over the entire treatment period versus control” value [3] of the same molecule?
The value was “no difference”.

What about the “body weight gain versus control” value [3] of the same molecule?
Its value is “lower”.

And the “toxic effect, appearance of treated group” value [3]?
Its value is “appeared healthy”.

And the “group mean weight after six days” value ([3]; 413.6 at start of trial, control 414.09 to 418.89)?
The value was 413.6.

What about the average food consumption ([3]; control 26.0) of the same molecule?
The average food consumption was 25.9 g/rat/day.

What does the source list for `NCCCC[C@@H]1NC(=O)[C@@H](Cc2c[nH]c3ccccc23)NC(=O)[C@H](Cc2ccccc2)NC(=O)[C@H](Cc2ccccc2)NC(=O)[C@@H](N)CSSC[C@@H](C(N)=O)NC(=O)[C@H](Cc2ccccc2)NC(=O)[C@H](CO)NC1=O` [BIM-23284, H-Cys-Phe-Phe-D-Trp-Lys-Ser-Phe-Cys-NH2] (H-CFF[dW]KSFC-NH2; disulfide 1-8)?
Ki (human SSTR-1): 27.9 nM; Ki (human SSTR-2): 19.3 nM; Ki (human SSTR-3): 35.6 nM; Ki (human SSTR-4): 58.6 nM; Ki (human SSTR-5): 0.85 nM

How did the Ki (human SSTR-1) turn out when `C[C@@H](O)[C@@H]1NC(=O)[C@H](CCCCN)NC(=O)[C@@H](Cc2c[nH]c3ccccc23)NC(=O)[C@H](Cc2ccc(O)cc2)NC(=O)[C@H](Cc2ccccc2)NC(=O)[C@@H](N)CSSC[C@@H](C(N)=O)NC(=O)[C@H](Cc2ccccc2)NC1=O` [BIM-23295, H-Cys-Phe-Tyr-D-Trp-Lys-Thr-Phe-Cys-NH2] (H-CFY[dW]KTFC-NH2; disulfide 1-8) was run?
The Ki was 86.9 nM.

And the Ki (human SSTR-2)?
The Ki was 6.19 nM.

And the Ki (human SSTR-3)?
The Ki was 9.7 nM.

And the Ki (human SSTR-4)?
The Ki was 3.4 nM.

What about the Ki (human SSTR-5) of the same molecule?
The Ki was 0.34 nM.

`C[C@@H](O)[C@@H]1NC(=O)[C@H](CCCCN)NC(=O)[C@@H](Cc2c[nH]c3ccccc23)NC(=O)[C@H](Cc2ccc(O)c(I)c2)NC(=O)[C@H](Cc2ccccc2)NC(=O)[C@@H](N)CSSC[C@@H](C(N)=O)NC(=O)[C@H](Cc2ccccc2)NC1=O` [BIM-23313, H-Cys-Phe-Tyr(I)-D-Trp-Lys-Thr-Phe-Cys-NH2] was tested. Which Ki (human SSTR-1; membranes of transfected CHO-K1 cells, [125I-Tyr11]somatostatin-14 0.05 nM, read-out: Ki hSSTR-1) did it give?
Its Ki is 15.1 nM.

Reference: patent publication US20020042374A1, “METHOD OF TREATING INSULIN INSENSITIVITY AND SYNDROME X” (priority 1997, published 2002)
